# Measurements reported in ChEMBL document CHEMBL6114969, “Ultra-short lipopeptides containing d-amino acid exhibiting excellent stability and antibacterial activity against gram-positive bacteria” (Eur J Med Chem, 2025).
# Active and inactive are the calls of the source. No cut-off for these calls is given here.
# How the values were obtained:
# Staphylococcus aureus [1] = test: Antibacterial activity against polymyxin B-resistant Staphylococcus aureus ATCC 25923 incubated for 18 to 24 hrs; format: functional; details: time 18-24 hrs
# Staphylococcus aureus [2] = test: Antibacterial activity against methicillin-resistant Staphylococcus aureus ATCC 33591 assessed as fold change in MIC incubated for 18 to 24 hrs in presence of MgCl2 by broth microdilution method; format: functional; details: time 18-24 hrs
# Staphylococcus aureus [3] = test: Antibacterial activity against methicillin-resistant Staphylococcus aureus ATCC 33591 infected in Balb/c mouse model of acute systemic infection assessed as reduction in bacterial count in spleen at 10 mg/kg, ip measured after 5 days; format: functional, organism-based; details: time 5.0 day
# Staphylococcus aureus [4] = test: Synergistic bactericidal activity against persistent methicillin-resistant Staphylococcus aureus ATCC 33591 incubated for 18 to 24 hrs in presence of vancomycin by time-kill assay; format: functional, organism-based; details: time 18-24 hrs
# Staphylococcus aureus [5] = test: Induction of cytoplasmic membrane depolarization in methicillin-resistant Staphylococcus aureus ATCC 33591 incubated upto 20 mins by DiSC3-5 dye based analysis; format: functional, organism-based
# [6] = Toxicity in Balb/c mouse assessed as change in key organs appearance at 20 to 40 mg/kg, ip measured after 7 days; format: organism-based; details: in vivo, 168 h, dose 20-40 mg/kg, time 7 day
# Staphylococcus aureus [7] = test: Induction of morphological changes in methicillin-resistant Staphylococcus aureus ATCC 33591 assessed as characteristic membrane rupture at 4 times MIC incubated for 2 hrs by SEM analysis; format: functional, organism-based
# Staphylococcus aureus [8] = test: Antibacterial activity against methicillin-resistant Staphylococcus aureus ATCC 33591 incubated for 18 to 24 hrs in presence of 1 mg/ml of pepsin by broth microdilution method; format: functional; details: time 18-24 hrs
# Staphylococcus aureus [9] = test: Antibacterial activity against methicillin-resistant Staphylococcus aureus ATCC 33591 infected in Balb/c mouse model of acute systemic infection assessed as tissue damage repair at 10 mg/kg, ip measured after 5 days in presence of polymyxin B by H and E staining based analysis; format: functional, organism-based; details: time 5.0 day
# Staphylococcus aureus [10] = test: Inhibition of imipenem-induced drug resistance in methicillin-resistant Staphylococcus aureus ATCC 33591 at sub-MIC measured upto 15 passages; format: functional, organism-based
# Staphylococcus aureus [11] = test: Induction of ROS production in methicillin-resistant Staphylococcus aureus ATCC 33591 at 1 to 4 times MIC measured upto 360 mins by DCFH-DA dye based analysis; format: functional, organism-based
# Staphylococcus aureus [12] = test: Induction of drug resistance in methicillin-resistant Staphylococcus aureus ATCC 33591 at sub-MIC measured after 15 passages; format: functional, organism-based
# Staphylococcus aureus [13] = test: (§1) Antibacterial activity against methicillin-resistant Staphylococcus aureus ATCC 33591 infected in Balb/c mouse model of pneumonia infection assessed as reduction in alveolar contraction in lung at 10 mg/kg, ip administered thrice at 4, 8 and 12 hrs post-infection measured after 24 hrs post-infection by H and E staining based analysis; format: functional, organism-based
# Staphylococcus aureus [14] = test: Anti-biofilm activity against methicillin-resistant Staphylococcus aureus ATCC 33591 at 8 uM incubated for 24 hrs by MTT assay; format: functional, organism-based
# Staphylococcus aureus [15] = test: Antibacterial activity against methicillin-resistant Staphylococcus aureus ATCC 33591 infected in Balb/c mouse model of acute systemic infection assessed as reduction in follicular structure loss in spleen at 10 mg/kg, ip measured after 5 days by H and E staining based analysis; format: functional, organism-based; details: time 5.0 day
# [16] = Toxicity in Balb/c mouse assessed as spleen atrophy at 80 mg/kg, ip measured after 7 days; format: organism-based; details: in vivo, 168 h, time 7 day
# Staphylococcus aureus [17] = test: Antibacterial activity against Staphylococcus aureus ATCC 29213 incubated for 18 to 24 hrs by broth microdilution method; format: functional; details: time 18-24 hrs
# Staphylococcus aureus [18] = test: Antibacterial activity against methicillin-resistant Staphylococcus aureus ATCC 33591 assessed as fold change in MIC incubated for 18 to 24 hrs in presence of NaCl by broth microdilution method; format: functional; details: time 18-24 hrs
# Staphylococcus aureus [19] = test: Antibacterial activity against methicillin-resistant Staphylococcus aureus ATCC 33591 infected in Balb/c mouse model of acute systemic infection assessed as reduction in inflammatory cell infiltration in kidney at 10 mg/kg, ip measured after 5 days by H and E staining based analysis; format: functional, organism-based; details: time 5.0 day
# [20] = Toxicity in Balb/c mouse assessed as organ edema at 20 to 80 mg/kg, ip measured after 7 days; format: organism-based; details: in vivo, 168 h, dose 20-80 mg/kg, time 7 day
# Staphylococcus aureus [21] = test: Antibacterial activity against methicillin-resistant Staphylococcus aureus ATCC 33591 infected in Balb/c mouse model of acute systemic infection assessed as reduction in bacterial count in lung at 10 mg/kg, ip measured after 5 days; format: functional, organism-based; details: time 5.0 day
# Staphylococcus aureus [22] = test: Antibacterial activity against drug-resistant methicillin-resistant Staphylococcus aureus ATCC 33591 incubated for 18 to 24 hrs; format: functional; details: time 18-24 hrs
# Staphylococcus aureus [23] = test: Synergistic antibacterial activity against methicillin-resistant Staphylococcus aureus ATCC 33591 assessed as fractional inhibitory concentration index upto 2 times MIC incubated for 18 to 24 hrs in presence of ciprofloxacin by checkerboard assay; format: functional; details: time 18-24 hrs
# [24] = Toxicity in Balb/c mouse assessed as kidney pigmentation at 80 mg/kg, ip measured after 7 days; format: organism-based; details: in vivo, 168 h, time 7 day
# Staphylococcus aureus [25] = test: Antibacterial activity against methicillin-resistant Staphylococcus aureus ATCC 33591 infected in Balb/c mouse model of skin wound infection assessed as reduction in TNF-alpha activity in skin at 10 mg/kg, ip administered thrice at 1, 24 and 48 hrs post-infection measured after 14 days in presence of polymyxin B by IHC analysis; format: functional, organism-based; details: time 14.0 day
# Staphylococcus aureus [26] = test: as §1, with “bleeding” for “alveolar contraction”; format: functional, organism-based; details: time 20.0 hrs
# Staphylococcus aureus [27] = test: Induction of morphological changes in methicillin-resistant Staphylococcus aureus ATCC 33591 assessed as bacterial membrane folds at 2 times MIC incubated for 2 hrs by SEM analysis; format: functional, organism-based
# [28] = Toxicity in Balb/c mouse assessed as cell swelling in kidney at 80 mg/kg, ip measured after 7 days by H and E staining based analysis; format: organism-based; details: in vivo, 168 h, time 7 day
# DNA = test: Binding affinity to genomic DNA in methicillin-resistant Staphylococcus aureus ATCC 33591 at 1 to 8 times MIC; format: nucleic-acid assay
# Mus musculus = test: In vivo inhibition of inflammation in Balb/c mouse model of acute systemic infection infected with methicillin-resistant Staphylococcus aureus ATCC 33591 assessed as reduction in IL-1beta activity at 10 mg/kg, ip measured after 5 days; format: functional, organism-based; details: time 5.0 day
# Staphylococcus aureus [29] = test: Antibacterial activity against drug-resistant Staphylococcus aureus ATCC 25923 incubated for 18 to 24 hrs; format: functional; details: time 18-24 hrs
# [30] = Toxicity in Balb/c mouse assessed as survival rate at 40 mg/kg, ip measured after 7 days; format: organism-based; details: in vivo, time 7 day
# Staphylococcus aureus [31] = test: Antibacterial activity against methicillin-resistant Staphylococcus aureus ATCC 33591 assessed as fold change in MIC incubated for 18 to 24 hrs in presence of 10 percent FBS by broth microdilution method; format: functional; details: time 18-24 hrs
# Staphylococcus aureus [32] = test: Antibacterial activity against gentamicin-resistant methicillin-resistant Staphylococcus aureus ATCC 33591 incubated for 18 to 24 hrs; format: functional; details: time 18-24 hrs
# Staphylococcus aureus [33] = test: Bactericidal activity against methicillin-resistant Staphylococcus aureus ATCC 33591 at 4 times MIC incubated for 24 hrs in presence of 4 ug/ml LPS by absorbance based assay; format: functional, organism-based
# [34] = Toxicity in Balb/c mouse assessed as survival rate at 20 to 40 mg/kg, ip measured after 7 days; format: organism-based; details: in vivo, dose 20-40 mg/kg, time 7 day
smiles,measurement,setting,value
CCCCCCCCCCCC(=O)N[C@H](CCCNC(=N)N)C(=O)N[C@H](CCCNC(=N)N)C(=O)N[C@H](Cc1c[nH]c2ccccc12)C(=O)O,MIC,Staphylococcus aureus [1],4 µM
same,fold change (FC),Staphylococcus aureus [2],<3
same,Activity,Staphylococcus aureus [3],Active
same,Activity,Staphylococcus aureus [4],Dose-dependent-effect
same,Activity,Staphylococcus aureus [5],Dose-dependent-effect; Compound Activity Was Slightly Weaker Than Triton X-100
same,Activity,[6],Non-toxic
same,Activity,Staphylococcus aureus [7],Active
same,MIC,Staphylococcus aureus [8],8 µM
same,Activity,Staphylococcus aureus [9],Active; Compound In Combination Exerted Better Activity Than Polymyxin B Treatment Alone
same,inhibition,Staphylococcus aureus [10],Active
same,Activity,Staphylococcus aureus [11],Active
same,Activity,Staphylococcus aureus [12],inactive
same,Activity,Staphylococcus aureus [13],Active
same,Activity,Staphylococcus aureus [14],"Active; Compound Activity Was Slightly Weaker Than Vancomycin But Significantly Better Than Polymyxin B, Imipenem, Ciprofloxacin And Gentamicin"
same,Activity,Staphylococcus aureus [15],Active
same,Activity,[16],Toxic
same,MIC,Staphylococcus aureus [17],4 µM
same,fold change (FC),Staphylococcus aureus [18],<3
same,Activity,Staphylococcus aureus [19],Active
same,Activity,[20],Toxic
same,Activity,Staphylococcus aureus [21],Active
same,MIC,Staphylococcus aureus [22],8 µM
same,fractional inhibitory concentration index (FICI),Staphylococcus aureus [23],0.75
same,Activity,[24],Toxic
same,Activity,Staphylococcus aureus [25],Active
same,Activity,Staphylococcus aureus [26],Active
same,Activity,Staphylococcus aureus [27],Active
same,Activity,[28],Toxic
same,Activity,DNA,Not active; Compound Exhibited Weak Affinity
same,inhibition,Mus musculus,Active
same,MIC,Staphylococcus aureus [29],8 µM
same,survival at 168 h,[30],0%
same,fold change (FC),Staphylococcus aureus [31],8
same,MIC,Staphylococcus aureus [32],8 µM
same,Activity,Staphylococcus aureus [33],inactive
same,survival at 168 h,[34],100%
